Assay results taken from US20120270237A9, “METHODS FOR THE IDENTIFICATION OF KINASE INTERACTING MOLECULES AND FOR THE PURIFICATION OF KINASE PROTEINS” (Cellzone AG, priority 2009, published 2012).

How the values were obtained:
Test in all cases: Kinobeads competition binding, HeLa Placenta lysate mix
Set-up in all cases: endogenous in cells
Settings in all cases: 10 μM free compound
CK2a1 = CK2a1 (Homo sapiens, UniProt P68400)
Experimental: (§1) To one aliquot of cell lysate 10 μM of the free compound (FIG. 3, CZC31326) was added and allowed to bind to proteins in the lysate. Then the affinity matrix with the immobilized compound was added to capture proteins that were not interacting with the previously added free compound. Beads were separated from the lysate and bead bound proteins were eluted in SDS sample buffer and subsequently separated by SDS-Polyacrylamide gel electrophoresis (FIG. 10). Suitable gel bands were cut out and subjected to in-gel proteolytic digestion with trypsin. The second lysate aliquot was processed identically, however no free compound was added (DMSO solvent control). Peptides originating from samples 1 and 2 were labeled with iTRAQ reagents (iTRAQ 114 and iTRAQ 117) and the combined samples were analyzed with a nano-flow liquid chromatography system coupled online to a tandem mass spectrometer (LC-MS/MS) experiment followed by iTRAQ reporter ion quantification in the MS/MS spectra as described in Example 2.

CaMKK2 = CaMKK2 (Homo sapiens, UniProt Q96RR4)
Experimental: as §1

DNAPK = DNAPK (Homo sapiens, UniProt P78527)
Experimental: as §1

MAP3K4 = MAP3K4 (Homo sapiens, UniProt Q9Y6R4)
Experimental: as §1

MSK2 = MSK2 (Homo sapiens, UniProt O75676)
Experimental: as §1

NEK3 = biological target: T1, NEK3 (Homo sapiens, UniProt P51956)
T1 sequence (P51956 1-506): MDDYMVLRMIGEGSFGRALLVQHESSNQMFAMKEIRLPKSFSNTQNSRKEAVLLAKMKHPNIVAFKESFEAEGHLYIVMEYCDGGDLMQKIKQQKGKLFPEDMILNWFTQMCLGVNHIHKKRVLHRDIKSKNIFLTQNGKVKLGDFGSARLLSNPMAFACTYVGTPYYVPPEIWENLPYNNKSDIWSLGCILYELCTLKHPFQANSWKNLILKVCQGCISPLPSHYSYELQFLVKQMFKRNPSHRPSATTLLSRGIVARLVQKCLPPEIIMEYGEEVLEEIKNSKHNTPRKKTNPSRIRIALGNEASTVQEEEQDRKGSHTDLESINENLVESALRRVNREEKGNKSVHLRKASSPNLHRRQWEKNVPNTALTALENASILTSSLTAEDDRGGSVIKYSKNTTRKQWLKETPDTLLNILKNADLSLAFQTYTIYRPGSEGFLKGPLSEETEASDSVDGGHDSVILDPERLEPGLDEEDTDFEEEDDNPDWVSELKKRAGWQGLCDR
Experimental: as §1

PIP5K2C = biological target: T2, PIP5K2C (Homo sapiens, UniProt Q8TBX8)
T2 sequence (Q8TBX8 1-421): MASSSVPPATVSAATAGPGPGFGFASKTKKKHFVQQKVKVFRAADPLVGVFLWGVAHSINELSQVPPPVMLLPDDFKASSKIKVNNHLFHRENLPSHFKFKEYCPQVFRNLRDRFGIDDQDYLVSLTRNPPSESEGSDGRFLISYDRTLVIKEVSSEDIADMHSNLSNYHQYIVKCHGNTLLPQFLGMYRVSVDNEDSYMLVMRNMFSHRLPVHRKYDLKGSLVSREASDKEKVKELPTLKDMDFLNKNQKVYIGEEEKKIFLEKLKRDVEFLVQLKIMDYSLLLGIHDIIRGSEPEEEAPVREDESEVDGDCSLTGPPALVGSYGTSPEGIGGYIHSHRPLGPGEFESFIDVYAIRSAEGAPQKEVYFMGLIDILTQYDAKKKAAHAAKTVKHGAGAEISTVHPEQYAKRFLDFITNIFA
Experimental: as §1

PKN1 = PKN1 (Homo sapiens, UniProt Q16512)
Experimental: as §1

TYK2 = TYK2 (Homo sapiens, UniProt P29597)
Experimental: as §1

Chain of TYK2 (P29597 whole entry): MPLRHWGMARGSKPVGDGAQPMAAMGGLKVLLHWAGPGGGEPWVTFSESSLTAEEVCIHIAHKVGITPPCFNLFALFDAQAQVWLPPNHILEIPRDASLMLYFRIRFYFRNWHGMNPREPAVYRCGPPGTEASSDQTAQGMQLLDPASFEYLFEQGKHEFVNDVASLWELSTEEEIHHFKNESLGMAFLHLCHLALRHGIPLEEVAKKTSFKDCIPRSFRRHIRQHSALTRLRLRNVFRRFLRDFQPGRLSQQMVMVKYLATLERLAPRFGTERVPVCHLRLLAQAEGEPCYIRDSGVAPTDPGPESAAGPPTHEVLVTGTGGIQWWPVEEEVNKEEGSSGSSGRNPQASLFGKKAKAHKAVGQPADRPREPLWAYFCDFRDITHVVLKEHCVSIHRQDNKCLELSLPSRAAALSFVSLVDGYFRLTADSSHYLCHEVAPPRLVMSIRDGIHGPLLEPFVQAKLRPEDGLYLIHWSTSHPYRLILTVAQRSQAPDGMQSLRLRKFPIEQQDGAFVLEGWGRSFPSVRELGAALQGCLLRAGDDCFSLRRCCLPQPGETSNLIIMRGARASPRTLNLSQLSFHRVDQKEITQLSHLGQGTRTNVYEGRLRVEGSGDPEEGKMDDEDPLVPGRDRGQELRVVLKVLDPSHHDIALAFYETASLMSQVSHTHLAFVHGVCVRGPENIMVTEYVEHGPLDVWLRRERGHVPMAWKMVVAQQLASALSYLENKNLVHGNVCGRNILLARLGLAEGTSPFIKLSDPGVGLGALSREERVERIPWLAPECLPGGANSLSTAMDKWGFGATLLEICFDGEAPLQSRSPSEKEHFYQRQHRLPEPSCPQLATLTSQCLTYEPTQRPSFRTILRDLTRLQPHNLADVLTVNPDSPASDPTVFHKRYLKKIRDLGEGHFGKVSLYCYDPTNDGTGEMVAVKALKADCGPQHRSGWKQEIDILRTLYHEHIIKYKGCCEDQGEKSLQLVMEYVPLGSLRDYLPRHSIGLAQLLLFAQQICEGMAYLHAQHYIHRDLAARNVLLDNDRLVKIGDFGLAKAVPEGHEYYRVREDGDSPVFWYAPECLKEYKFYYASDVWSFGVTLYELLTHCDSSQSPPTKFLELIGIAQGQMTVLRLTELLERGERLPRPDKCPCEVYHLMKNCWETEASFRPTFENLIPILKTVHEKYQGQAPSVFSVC
Chain of PKN1 (Q16512 whole entry): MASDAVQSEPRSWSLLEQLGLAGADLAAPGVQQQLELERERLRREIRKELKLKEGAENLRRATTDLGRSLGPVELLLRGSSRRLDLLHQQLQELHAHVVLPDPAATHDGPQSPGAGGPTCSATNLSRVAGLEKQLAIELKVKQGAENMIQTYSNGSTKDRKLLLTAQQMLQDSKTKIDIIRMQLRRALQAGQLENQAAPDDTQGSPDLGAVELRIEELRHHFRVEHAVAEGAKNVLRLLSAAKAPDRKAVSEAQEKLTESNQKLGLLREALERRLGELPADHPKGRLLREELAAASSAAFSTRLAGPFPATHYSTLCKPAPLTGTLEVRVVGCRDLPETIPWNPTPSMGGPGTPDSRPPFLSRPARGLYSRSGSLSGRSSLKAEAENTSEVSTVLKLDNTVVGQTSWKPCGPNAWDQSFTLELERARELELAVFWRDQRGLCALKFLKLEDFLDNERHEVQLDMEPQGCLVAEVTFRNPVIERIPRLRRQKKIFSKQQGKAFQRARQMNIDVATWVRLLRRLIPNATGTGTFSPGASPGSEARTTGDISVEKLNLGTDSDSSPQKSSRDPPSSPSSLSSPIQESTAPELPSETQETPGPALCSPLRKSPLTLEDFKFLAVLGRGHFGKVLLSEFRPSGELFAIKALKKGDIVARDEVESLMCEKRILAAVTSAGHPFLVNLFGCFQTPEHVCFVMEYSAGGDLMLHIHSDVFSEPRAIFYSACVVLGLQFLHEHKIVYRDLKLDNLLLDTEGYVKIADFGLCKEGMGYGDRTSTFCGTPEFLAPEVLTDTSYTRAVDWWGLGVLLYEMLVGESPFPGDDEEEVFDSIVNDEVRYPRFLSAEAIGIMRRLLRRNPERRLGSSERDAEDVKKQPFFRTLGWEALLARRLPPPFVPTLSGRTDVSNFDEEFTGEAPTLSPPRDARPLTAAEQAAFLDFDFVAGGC
Chain of MAP3K4 (Q9Y6R4 whole entry): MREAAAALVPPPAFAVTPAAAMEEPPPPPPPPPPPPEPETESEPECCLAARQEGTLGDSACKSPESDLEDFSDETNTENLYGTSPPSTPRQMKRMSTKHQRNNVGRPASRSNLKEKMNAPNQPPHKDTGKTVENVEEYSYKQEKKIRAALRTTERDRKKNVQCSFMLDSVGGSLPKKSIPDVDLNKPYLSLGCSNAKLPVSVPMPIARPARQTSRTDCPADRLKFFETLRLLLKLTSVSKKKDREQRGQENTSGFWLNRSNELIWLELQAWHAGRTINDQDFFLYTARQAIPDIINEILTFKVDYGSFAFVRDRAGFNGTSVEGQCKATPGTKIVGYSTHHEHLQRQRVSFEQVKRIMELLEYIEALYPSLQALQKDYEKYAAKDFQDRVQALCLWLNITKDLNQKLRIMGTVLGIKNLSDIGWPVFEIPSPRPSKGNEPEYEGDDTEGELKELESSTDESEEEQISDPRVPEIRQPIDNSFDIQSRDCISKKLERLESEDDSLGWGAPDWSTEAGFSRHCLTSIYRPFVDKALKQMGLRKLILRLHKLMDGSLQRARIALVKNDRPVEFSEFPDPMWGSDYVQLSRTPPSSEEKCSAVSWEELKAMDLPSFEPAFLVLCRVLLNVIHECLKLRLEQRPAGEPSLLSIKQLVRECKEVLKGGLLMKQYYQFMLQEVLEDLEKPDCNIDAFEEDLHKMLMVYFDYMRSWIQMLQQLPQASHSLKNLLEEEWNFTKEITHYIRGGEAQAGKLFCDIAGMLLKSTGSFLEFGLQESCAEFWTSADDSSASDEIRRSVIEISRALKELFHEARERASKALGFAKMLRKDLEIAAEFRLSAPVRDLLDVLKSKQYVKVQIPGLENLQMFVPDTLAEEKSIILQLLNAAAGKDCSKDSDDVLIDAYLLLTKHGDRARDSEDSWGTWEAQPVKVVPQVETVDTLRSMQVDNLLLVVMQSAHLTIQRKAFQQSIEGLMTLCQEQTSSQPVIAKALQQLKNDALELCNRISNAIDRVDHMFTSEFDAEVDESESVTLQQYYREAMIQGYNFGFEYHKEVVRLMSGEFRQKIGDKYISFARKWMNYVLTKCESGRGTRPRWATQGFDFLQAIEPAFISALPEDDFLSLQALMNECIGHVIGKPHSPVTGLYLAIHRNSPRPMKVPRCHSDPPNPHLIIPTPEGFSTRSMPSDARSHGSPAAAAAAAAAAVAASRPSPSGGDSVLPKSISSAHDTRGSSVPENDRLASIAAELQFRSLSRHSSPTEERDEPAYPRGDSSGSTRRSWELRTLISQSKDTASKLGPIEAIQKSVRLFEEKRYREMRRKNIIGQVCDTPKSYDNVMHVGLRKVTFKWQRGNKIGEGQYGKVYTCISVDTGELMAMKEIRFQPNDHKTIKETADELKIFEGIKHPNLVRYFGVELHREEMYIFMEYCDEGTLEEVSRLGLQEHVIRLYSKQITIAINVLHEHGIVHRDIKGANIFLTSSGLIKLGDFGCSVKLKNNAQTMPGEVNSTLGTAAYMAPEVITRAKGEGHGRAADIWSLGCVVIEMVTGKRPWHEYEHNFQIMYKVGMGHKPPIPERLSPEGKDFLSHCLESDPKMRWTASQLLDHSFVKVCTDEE
Chain of MSK2 (O75676 whole entry): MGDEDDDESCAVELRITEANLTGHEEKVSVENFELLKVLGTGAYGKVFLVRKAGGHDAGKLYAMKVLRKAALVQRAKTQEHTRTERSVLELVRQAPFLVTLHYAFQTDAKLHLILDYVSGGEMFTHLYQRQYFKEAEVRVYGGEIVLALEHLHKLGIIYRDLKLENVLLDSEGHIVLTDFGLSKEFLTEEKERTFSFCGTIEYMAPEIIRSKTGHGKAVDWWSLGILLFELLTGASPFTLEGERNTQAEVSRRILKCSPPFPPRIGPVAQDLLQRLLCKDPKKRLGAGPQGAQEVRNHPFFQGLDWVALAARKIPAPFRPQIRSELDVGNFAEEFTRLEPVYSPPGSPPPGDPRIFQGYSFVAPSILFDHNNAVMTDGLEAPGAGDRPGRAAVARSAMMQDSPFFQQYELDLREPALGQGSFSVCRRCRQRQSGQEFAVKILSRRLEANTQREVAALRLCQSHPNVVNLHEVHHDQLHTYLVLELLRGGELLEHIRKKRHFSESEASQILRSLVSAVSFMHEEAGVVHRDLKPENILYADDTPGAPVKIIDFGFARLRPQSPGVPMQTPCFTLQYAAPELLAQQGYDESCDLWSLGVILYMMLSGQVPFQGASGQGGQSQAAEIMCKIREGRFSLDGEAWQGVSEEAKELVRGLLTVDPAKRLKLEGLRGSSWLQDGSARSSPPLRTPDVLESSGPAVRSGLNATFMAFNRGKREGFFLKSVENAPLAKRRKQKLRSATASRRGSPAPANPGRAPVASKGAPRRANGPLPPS
Chain of CaMKK2 (Q96RR4 whole entry): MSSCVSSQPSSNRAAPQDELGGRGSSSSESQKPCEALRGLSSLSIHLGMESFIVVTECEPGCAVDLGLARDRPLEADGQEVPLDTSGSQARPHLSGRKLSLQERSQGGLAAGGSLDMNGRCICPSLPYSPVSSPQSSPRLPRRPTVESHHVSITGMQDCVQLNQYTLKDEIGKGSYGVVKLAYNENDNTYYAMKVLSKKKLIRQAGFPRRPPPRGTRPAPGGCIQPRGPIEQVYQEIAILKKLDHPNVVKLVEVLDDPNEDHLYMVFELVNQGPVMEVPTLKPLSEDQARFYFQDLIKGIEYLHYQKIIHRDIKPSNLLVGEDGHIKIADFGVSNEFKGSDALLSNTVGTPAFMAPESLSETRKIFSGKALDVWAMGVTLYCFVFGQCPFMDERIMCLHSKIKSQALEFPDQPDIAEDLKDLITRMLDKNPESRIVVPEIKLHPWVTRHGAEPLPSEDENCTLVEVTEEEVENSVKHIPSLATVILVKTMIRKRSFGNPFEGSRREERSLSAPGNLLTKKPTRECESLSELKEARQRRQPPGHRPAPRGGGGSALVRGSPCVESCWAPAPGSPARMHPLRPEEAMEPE

CS(=O)(=O)Nc1ccccc1Nc1nc(Nc2cccc(OCCN)c2)ncc1Cl [CZC31326, N-(2-(2-(3-(2-aminoethoxy)phenylamino)-5-chloropyrimidin-4-ylamino)phenyl)methanesulfonamide]
inhibition at 10 µM (CK2a1): 94.6% | inhibition at 10 µM (CaMKK2): 94.3% | inhibition at 10 µM (DNAPK): 69.2% | inhibition at 10 µM (MAP3K4): 92.2% | inhibition at 10 µM (MSK2): 95.3% | inhibition at 10 µM (NEK3): 94.8% | inhibition at 10 µM (PIP5K2C): 95.4% | inhibition at 10 µM (PKN1): 93.7% | Competition % (TYK2): 93.8%
